In general, IC50 refers to the concentration needed to halve the response being measured.

Here are results for 2 compounds from patent US11891400B2, “Pyrazolo[1,5-a]pyrimidine-3-carboxamide derivatives useful in the treatment of psoriasis and systemic lupus erythematosus” (Eli Lilly and Company, priority 2018, dated 2024).

Each structure is given as a SMILES string.

The subject of test [1] is IL-23 signaling (STAT3 phosphorylation) in Kit225 cells. The experiment in a line: IL23 pSTAT3 AlphaLISA assay. It counts as cell-based. The conditions noted are these: 0.5 h, IL23 25 ng/ml for 30 minutes, geometric mean (SEM), read-out: relative IC50, IL23 pSTAT3. On the procedure:
IL2-dependent Kit225 cells expressing endogenous IL23 receptors are stably transduced with the Lenti STAT3 Reporter linked to firefly luciferase (SABiosciences CLS-6028L). These cells are used to monitor TYK2 activity by quantifying gene expression caused by STAT3 phosporylation following induction by IL23 in the presence of IL2 using AlphaLISA technology (TGR Biosciences ALSU-TST3-A50K). The cells are grown in RPMI 1640 (Gibco 22400) supplemented with 10% FBS (Invitrogen 10082), 1× Pen/Strep (Gibco 15140-122), 200 ng/ml Puromycin (Sigma P9620), and fresh 10 ng/ml recombinant human IL2 (R&D Systems 202-IL-50). For assay preparation, cells are dispensed into Biocoat black poly-d-lysine coated clear bottom 384-well plates (Becton Dickinson Bio-Coat 35-4640) in DMEM (Sigma D5796) at 300,000 cells/well and allowed to incubate overnight at 37° C. Compounds solubilized in DMSO are serially diluted 1:3 to produce a 10-point concentration response curve (final DMSO=0.1%). Cells are pre-incubated with Example 1 for 1 hour at 37° C., then stimulated with IL23 (25 ng/ml final) for 30 minutes. […] The AlphaLISA reaction is performed following the vendor's recommended protocol, and the luciferase levels are measured using an Envision plate reader (Perkin Elmer). […]

Test [2] concerns IFNα signaling through pSTAT1 in TF1 cells. The experiment in a line: Inhibition of IFNα signaling through pSTAT1 in TF1 cells. It counts as cell-based. The conditions noted are these: Homo sapiens, TF-1, 20 min, 10 ng/ml IFNα2 for 20 minutes, AlphaLISA, geometric mean (SEM), read-out: IC50, inhibition of p-Stat1 (Tyr701). On the procedure: TF1 cells (ATCC, CL-2003) are grown in RPMI 1640 (GIBCO) supplemented with 10% dialyzed FBS, 0.1 mg/ml Ampicillin and 2 ng/mL granulocyte macrophage colony stimulating factor. TF1 cells (100 K per well) are seeded in a 96-well poly-D-lysine coated plates in serum-free DMEM and incubated overnight at 37° C. under 5% CO2. Example 1 is serially diluted in DMSO, added to the cells, and incubated at 37° C. for 1 hr. Cells are then stimulated with 10 ng/ml IFNα2 at 37° C. for 20 minutes. After removing the medium, the cells are lysed in buffer containing Halt protease and phosphatase inhibitor cocktail (Thermo Scientific #78441) at room temperature for 30 minutes. The amount of p-Stat1 (Tyr701) is quantified as light emission at 615 nm using the AlphaLISA SureFire Ultra p-Stat1 (Tyr701) assay kit (Perkin Elmer #ALSU-PST1-A50K) following the vendor's recommended protocol. Percent inhibition at each inhibitor concentration is calculated and fit to the four parameter nonlinear logistic equation using Genedata Screener® to give an IC50 for the compound of Example 1 of 0.008 μM (±0.001 μM, n=5) and for the compound of Example 2 of 0.010 μM (±0.001 μM, n=4) expressed as GeoMetric means with the standard error of the mean (SEM).
(Bead proximity is the source of the signal in Alpha formats.)

A further test concerns the target T1, TYK2 JH2 (Homo sapiens, UniProt P29597).
T1 construct: The pseudokinase domain (JH2) of human JAK (Janus family of cytoplasmic tyrosine kinases) family tyrosine kinase 2 (TYK2); made in house
The experiment in a line: Binding to TYK2 JH2 by Scintillation Proximity Assay. The note with it: His-tagged TYK2 JH2, 3H-labelled ligand 50 nM, SPA; geometric mean (SEM); read-out: IC50, inhibition of radioligand binding to TYK2 JH2. An excerpt: The pseudokinase domain (JH2) of human JAK (Janus family of cytoplasmic tyrosine kinases) family tyrosine kinase 2 (TYK2) with an N-terminal His^6 tag is expressed in baculovirus and purified by Ni-NTA affinity and size-exclusion chromatography. Yttrium (YSi) His-Tag scintillation proximity assay (SPA) beads (cat #PRNQ0096) are purchased from PerkinElmer Life Sciences. ^3H—N-[(1R)-1-[3-[8-Methyl-5-(methylamino)-8H-imidazo[4,5-d]thiazolo[5,4-b]pyridin-2-yl]phenyl]ethyl]-2-(methylsulfonyl) benzamide is synthesized by Quotient Bio with a specific activity of 63 Ci/mmol and a concentration 6.78 μM stored in ethanol (cat #TRQ41678) (See also e.g., J. S. Tokarski, et al., J. Biol. Chem., vol. 290(17), pages 11061-11074 (2015) and R. Moslin, et al., Med. Chem. Commun., vol. 8, pages 700-712 (2017)).
A 3 fold, 10 point serial dilution of Example 1 is prepared in 100% DMSO (200 nL) and transferred to a 96 well, white, clear bottom, non-binding surface assay plate (Costar 3604) using acoustic liquid handling. Control wells used to determine percent inhibition contained either DMSO (200 nL) or cold, unlabeled inhibitor (200 nL, 10 mM, 200 μM final concentration). […] After 15 minutes at room temperature, radioactivity is counted using the Trilux Microbeta.

T1 sequence (P29597 589-875 limits assumed): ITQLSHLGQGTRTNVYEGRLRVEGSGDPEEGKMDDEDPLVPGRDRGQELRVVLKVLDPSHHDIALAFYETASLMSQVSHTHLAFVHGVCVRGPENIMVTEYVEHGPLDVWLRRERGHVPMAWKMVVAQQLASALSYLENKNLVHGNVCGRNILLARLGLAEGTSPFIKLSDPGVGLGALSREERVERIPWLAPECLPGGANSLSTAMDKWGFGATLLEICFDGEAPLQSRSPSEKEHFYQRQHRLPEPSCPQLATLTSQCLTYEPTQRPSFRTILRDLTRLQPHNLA

Consider `CNc1cc(Nc2ccccc2OC)nc2c(C(=O)N[C@@H]3CCN(C)C3=O)cnn12` [Example 1, 5-(2-Methoxyanilino)-7-(methylamino)-N-[(3R)-1-methyl-2-oxo-pyrrolidin-3-yl]pyrazolo[1,5-a]pyrimidine-3-carboxamide], for which the IC50 in test [1] amounted to 9 nM; in test [2] it was 8 nM; on TYK2 JH2, 45 nM.

For the compound `CCOc1ccccc1Nc1cc(NC)n2ncc(C(=O)N[C@@H]3CCN(C)C3=O)c2n1` (single isomer, unassigned) [Example 2], the IC50 came out at 10 nM in test [1], 10 nM in test [2] and 40 nM at TYK2 JH2.
